Test: DPPH radical scavenging antioxidant test
Assay type: biochemical
Conditions: for Inhibition (radical scavenging inhibition) / A (absorbance): DPPH 0.2 mL (0.75 mM), compound 3 μM in ethanol, 30 min incubation in the dark; for A (absorbance): read at 517 nm against a blank
Procedure: The antioxidant properties of the 8-(4-methoxybenzylideneamino)naphthalene-1,3-disulfonic acid were studied by adding 0.2 mL DPPH (0.75 mM)) to compound 8-(4-methoxybenzylideneamino) naphthalene-1,3 -di sulfonic acid (III) (3 μM) in ethanol. After 30 min of incubation in the dark, the absorbance was read against a blank at 517 nm. Ascorbic acid (vitamin C) was used as standard antioxidants (positive control). A blank sample was prepared by 0.2 ml of DPPH in 3 ml ethanol. A negative control sample was run using ethanol instead of the sample. The radical scavenging inhibition was calculated using the following equation: […]

Row | Compound | Inhibition (radical scavenging inhibition) (517 nm) | A (absorbance) | antioxidant potential (DPPH), in words (DPPH in vitro test, 517 nm, vitamin C as positive control)
1 | O=C1O[C@H]([C@@H](O)CO)C(O)=C1O [vit c, Ascorbic acid, reference compound] | 74% | 0.12 | 
2 | COc1ccc(/C=N/c2cccc3cc(S(=O)(=O)O)cc(S(=O)(=O)O)c23)cc1 [Product III, 8-(4-methoxybenzylideneamino)naphthalene-1,3-disulfonic acid] | 50% | 0.22 | high potential as an antioxidant compared to vitamin C
